Test results as given in patent publication US6906090B1, “Compositions and methods for treating mycobacterial diseases” (AstraZeneca AB, priority 1998, dated 2005).

Test system: M. tuberculosis
Assay: BACTEC radiometric MIC test for bactericidal activity against M. tuberculosis
Format: cell-based
Settings: Mycobacterium tuberculosis, read-out: minimum inhibitory concentration (MIC)

CCCCCCCCCCCCN1C(=O)C(=O)c2cccc(-c3ccccc3)c21 [Example 19, 1-Dodecyl-7-phenyl-1H-indole-2,3-dione]
MIC: ≤ 20 µg/mL

O=C1Cc2cc(C3CCCCC3)ccc2N1CCC1CCN(Cc2ccccc2)CC1 [Example 4, 5-Cyclohexyl-1,3-dihydro-1-[2-[1-(phenylmethyl) 4-piperidinyl]ethyl]-2H-2H-indol-2-one]
MIC: ≤ 20 µg/mL

CC(C)CN1C(=O)C(=O)c2cccc(-c3ccccc3)c21 [Example 17, 1-(2-Methylpropyl)-7-phenyl-1H-indole-2,3-dione]
MIC: ≤ 20 µg/mL

CCCCCCCCCCN1C(=O)C(=O)c2cccc(-c3ccccc3)c21 [Example 13, 1-Decyl-7-phenyl-1-H-indole-2,3-dione]
MIC: ≤ 20 µg/mL

CCCCCCCCCCCN1C(=O)C(=O)c2cccc(-c3ccccc3)c21 [Example 14, 1-Undececyl-7-phenyl-1-H-indole-2,3-dione]
MIC: ≤ 20 µg/mL

CCCCCCCCCN1C(=O)C(=O)c2cccc(-c3ccccc3)c21 [Example 10, 1-Nonyl-7-phenyl-1H-indole-2,3-dione]
MIC: ≤ 20 µg/mL

O=C1C(=O)N(CCC2CCN(Cc3ccccc3)CC2)c2ccc(C3CCCCC3)cc21 [Example 1, 5-Cyclohexyl-1-[2-[1-(phenylmethyl)-4-piperidinyl]ethyl]-1H-indole-2,3-dione]
MIC: ≤ 20 µg/mL

O=C1C(=O)N(CCCCBr)c2ccc(C3CCCCC3)cc21 [Example 9, 1-(4-Bromobutyl)-5-cyclohexyl-1H-indole-2,3-dione]
MIC: ≤ 20 µg/mL

CCN(CCCCN1C(=O)C(=O)c2ccccc21)Cc1ccccc1 [Example 5, 1-(4-(N-Ethyl-N-phenylmethylamino)butyl)-1H-indole-2,3-dione]
MIC: ≤ 20 µg/mL

CCCCCCN1C(=O)C(=O)c2cccc(-c3ccccc3)c21 [Example 18, 1-Hexyl-7-phenyl-1-indole-2,3-dione]
MIC: ≤ 20 µg/mL

O=C1C(=O)N(CCN2CCN(Cc3ccccc3)CC2)c2c1cccc2C1CCCC1 [Example 7, 7-Cyclopentyl-1-[2-[4-(phenylmethyl)-1-piperazinyl]ethyl]-1H-indole-2,3-dione]
MIC: ≤ 20 µg/mL

CCCCN1C(=O)C(=O)c2cccc(-c3ccccc3)c21 [Example 16, 1-Butyl-7-phenyl-1H-inidole-2,3-dione]
MIC: ≤ 20 µg/mL

O=C1C(=O)N(CCN2CCN(Cc3ccccc3)CC2)c2ccc(-c3ccccc3)cc21 [Example 6, 5-Phenyl-1-[2-[4-(phenylmethyl)-1-perazinyl]ethyl]-1H-indole-2,3-dione]
MIC: ≤ 20 µg/mL

O=C1C(=O)N(CCN2CCN(Cc3ccccc3)CC2)c2c1cccc2C1CCCCCC1 [Example 2, 7-Cycloheptyl-1-[2-[4-(phenylmethyl)-1-piperazinyl]ethyl]-1H-indole-2,3-dione]
MIC: ≤ 20 µg/mL

O=C1C(=O)N(CCCCBr)c2c1cccc2-c1ccccc1 [Example 20, 1-(4-Bromobutyl)-7-phenyl-1H-indole-2,3-dione]
MIC: ≤ 20 µg/mL

O=C1C(=O)N(CCN2CCN(Cc3ccccc3)CC2)c2ccc(N3CCCCC3)cc21 [Example 8, 5-(1-Piperidinyl)-1-[2-[4-(phenylmethyl)-1-piperazinyl]ethyl]-1H-indole-2,3-dione]
MIC: ≤ 20 µg/mL

CCCCCCCCN1C(=O)C(=O)c2cccc(-c3ccccc3)c21 [Example 12, 1-Octyl-7-phenyl-1-H-indole-2,3-dione]
MIC: ≤ 20 µg/mL

CCCCCCCN1C(=O)C(=O)c2cccc(-c3ccccc3)c21 [Example 11, 1-Heptyl-7-phenyl-1H-indole-2,3-dione]
MIC: ≤ 20 µg/mL

CCCCCN1C(=O)C(=O)c2cccc(-c3ccccc3)c21 [Example 15, 1-Pentyl-7-phenyl-1H-indole-2,3-dione]
MIC: ≤ 20 µg/mL

CCN(CCCCCN1C(=O)C(=O)c2cc(C3CCCCC3)ccc21)Cc1ccccc1 [Example 3, 5-Cyclohexyl-1-(5-(N-ethyl-N-phenylmethylamino)pentyl)-1H-indole-2,3-dione]
MIC: ≤ 20 µg/mL
